Measurements reported in patent publication US10087187B2, “Imidazopyridazine derivatives as PI3KB inhibitors” (Janssen Pharmaceutica NV, priority 2014, dated 2018).
Like-named read-outs stand apart in the source and are kept apart here.

Experiments:
PIK3Cα_h = PIK3Cα_h (Homo sapiens (Human), UniProt P42336); assay: KINOMEscan enzyme binding assay, PIK3Cα; conditions: DiscoveRx
Method: (§1) Enzyme Binding Assays (KINOMEscan®) Kinase enzyme binding affinities of compounds disclosed herein were determined using the KINOMEscan technology performed by DiscoveRx Corporation, San Diego, Calif., USA (www.kinomescan.com).

[1] = tested on: Akt phosphorylated at Thr308 in PC-3 cells; assay: Cellular assay: phosphorylation of Akt (Thr308) in PC-3 cells, MSD ELISA; type: cell-based; conditions: 60 min incubation with compound, read-out: IC50 pAkt_Thr308
Method: (§2) Cellular activity of PI3Kβ inhibitors was determined by quantifying the phosphorylation of Akt in PC-3 cells. Akt phosphorylated at Ser473 and Thr308 were measured using an enzyme-linked immunosorbent assay (ELISA; Meso Scale Discovery (MSD), Gaithersburg, Md.) and specific primary antibodies from MSD.
(§3) On day 1, PC3 cells (ATCC # […]) were seeded into PerkinElmer MW96 plates at 25.000 cells per well, in 75 μl complete culture medium (DMEM (Dulbecco's Modified Eagle's Medium) high glucose, AQmedia™, D0819, Sigma-Aldrich) containing 10% heat inactivated FCS (Fetal Bovine Serum) and incubated at 37° C., 5% CO2 during 24 hours. On day 2, compound or DMSO (dimethyl sulfoxide) (0.3%) was added and cells were further incubated for 60 min at 37° C., 5% CO2 in a total volume of 100 μl of medium.
(§4) The phosphoprotein assay was executed according to vendor instructions in the Phospho-Akt (Ser473) Assay Whole Cell Lysate Kit (MSD # K15100D-3) and the Phospho-Akt (Thr308) Assay Whole Cell Lysate Kit (MSD # K151DYD-3) using the lysis, blocking and wash buffer provided.
(§5) Briefly, at the end of the cell treatment period, media were removed by aspiration and adherent cells were lysed in 50 μl ice-cold lysis buffer. MSD plates are supplied pre-coated with capture antibodies for Phospho-Akt (Ser473 and Thr308). After blocking, lysates from tissue culture plates were added and plates were washed. Then, a solution containing the detection antibody (anti-total Akt conjugated with an electrochemiluminescent compound-MSD Sulfo-tag label) was added. The signals were detected using an MSD SECTOR Imager 6000 and are proportional to the phospho-Akt titres.
(§6) Data were processed. The percentage of inhibition was plotted against the log concentration of test compounds, and the sigmoidal log concentration-effect curve of best fit was calculated by nonlinear regression analysis. From these concentration-response curves, the IC50 values were calculated. Five concentrations were used for curve fitting.

[2] = tested on: Akt phosphorylated at Ser473 in PC-3 cells; assay: Cellular assay: phosphorylation of Akt (Ser473) in PC-3 cells, MSD ELISA; type: cell-based; conditions: 60 min incubation with compound, read-out: IC50 pAkt_S473
Method: as §2, §3, §4, §5, §6

PIK3Cβ_h = PIK3Cβ_h (Homo sapiens (Human), UniProt P42338); assay: KINOMEscan enzyme binding assay, PIK3Cβ; conditions: DiscoveRx
Method: (§7) Enzyme Binding Assays (KINOMEscan®) Kinase enzyme binding affinities of compounds disclosed herein were determined using the KINOMEscan technology performed by DiscoveRx Corporation, San Diego, Calif., USA (www.kinomescan.com). Table A reports the obtained Kd values (nM), with the Kd being the inhibitor binding constant: […]

PIK3Cγ_h = PIK3Cγ_h (Homo sapiens (Human), UniProt P48736); assay: KINOMEscan enzyme binding assay, PIK3Cγ; conditions: DiscoveRx
Method: as §1

MTOR_h = MTOR_h (Homo sapiens (Human), UniProt P42345); assay: KINOMEscan enzyme binding assay, MTOR; conditions: DiscoveRx
Method: as §1

PIK3Cδ_h = PIK3Cδ_h (Homo sapiens (Human), UniProt O00329); assay: KINOMEscan enzyme binding assay, PIK3Cδ; conditions: DiscoveRx
Method: as §7

Sequence of PIK3Cβ_h (P42338 whole entry): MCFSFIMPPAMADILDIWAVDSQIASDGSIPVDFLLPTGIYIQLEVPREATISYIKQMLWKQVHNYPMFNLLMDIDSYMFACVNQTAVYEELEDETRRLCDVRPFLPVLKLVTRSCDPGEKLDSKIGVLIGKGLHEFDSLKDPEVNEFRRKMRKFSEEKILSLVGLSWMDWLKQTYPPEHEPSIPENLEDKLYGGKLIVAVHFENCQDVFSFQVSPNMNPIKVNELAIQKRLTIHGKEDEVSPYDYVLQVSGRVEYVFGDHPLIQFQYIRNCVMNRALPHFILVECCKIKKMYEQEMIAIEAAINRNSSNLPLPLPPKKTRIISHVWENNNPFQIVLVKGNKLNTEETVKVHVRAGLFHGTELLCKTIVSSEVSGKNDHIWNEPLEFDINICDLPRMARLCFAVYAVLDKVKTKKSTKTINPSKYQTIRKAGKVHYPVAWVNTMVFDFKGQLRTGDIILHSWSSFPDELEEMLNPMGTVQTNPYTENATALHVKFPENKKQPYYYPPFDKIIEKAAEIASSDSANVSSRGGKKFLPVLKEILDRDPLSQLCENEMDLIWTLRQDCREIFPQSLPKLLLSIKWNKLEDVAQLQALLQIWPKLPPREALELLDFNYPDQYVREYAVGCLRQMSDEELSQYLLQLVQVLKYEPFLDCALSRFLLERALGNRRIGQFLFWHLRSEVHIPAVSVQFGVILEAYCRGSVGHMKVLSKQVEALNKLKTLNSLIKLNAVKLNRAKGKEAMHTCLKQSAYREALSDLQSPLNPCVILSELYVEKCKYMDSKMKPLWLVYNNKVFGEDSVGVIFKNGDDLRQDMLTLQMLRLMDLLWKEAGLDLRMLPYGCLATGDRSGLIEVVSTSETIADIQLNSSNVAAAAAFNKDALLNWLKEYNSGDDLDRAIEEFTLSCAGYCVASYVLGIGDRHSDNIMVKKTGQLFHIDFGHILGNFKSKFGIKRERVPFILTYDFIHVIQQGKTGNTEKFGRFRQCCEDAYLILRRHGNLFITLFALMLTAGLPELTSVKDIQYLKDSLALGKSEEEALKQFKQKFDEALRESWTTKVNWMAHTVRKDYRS
Sequence of PIK3Cα_h (P42336 whole entry): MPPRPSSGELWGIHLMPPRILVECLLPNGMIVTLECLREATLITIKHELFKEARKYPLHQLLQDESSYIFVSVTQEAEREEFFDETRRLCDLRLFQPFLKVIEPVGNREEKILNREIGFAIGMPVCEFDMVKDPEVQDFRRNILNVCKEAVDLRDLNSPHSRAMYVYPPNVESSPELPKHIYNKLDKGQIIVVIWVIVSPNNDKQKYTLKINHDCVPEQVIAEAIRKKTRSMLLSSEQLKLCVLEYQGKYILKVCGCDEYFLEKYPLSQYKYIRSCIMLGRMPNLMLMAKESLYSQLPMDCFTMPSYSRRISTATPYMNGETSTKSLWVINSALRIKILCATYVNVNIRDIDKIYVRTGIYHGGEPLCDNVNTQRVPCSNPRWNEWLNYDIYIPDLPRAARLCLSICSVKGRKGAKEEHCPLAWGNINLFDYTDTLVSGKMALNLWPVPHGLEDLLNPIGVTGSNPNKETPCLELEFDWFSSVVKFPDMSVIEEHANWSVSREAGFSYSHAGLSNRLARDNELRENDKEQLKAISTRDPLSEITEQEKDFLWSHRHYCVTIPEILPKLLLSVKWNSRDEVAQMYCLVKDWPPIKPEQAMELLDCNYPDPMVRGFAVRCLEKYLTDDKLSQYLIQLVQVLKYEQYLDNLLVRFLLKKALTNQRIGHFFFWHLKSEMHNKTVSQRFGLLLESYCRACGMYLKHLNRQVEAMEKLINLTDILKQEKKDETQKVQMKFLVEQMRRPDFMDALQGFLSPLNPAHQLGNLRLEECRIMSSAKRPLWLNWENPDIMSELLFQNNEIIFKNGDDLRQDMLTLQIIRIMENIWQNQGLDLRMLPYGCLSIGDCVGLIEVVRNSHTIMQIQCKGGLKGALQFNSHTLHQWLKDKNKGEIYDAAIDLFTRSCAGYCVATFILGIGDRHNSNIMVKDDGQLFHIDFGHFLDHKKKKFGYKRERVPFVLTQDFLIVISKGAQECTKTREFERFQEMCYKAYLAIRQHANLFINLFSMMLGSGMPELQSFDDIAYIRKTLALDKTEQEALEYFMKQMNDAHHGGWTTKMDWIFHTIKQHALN
Sequence of PIK3Cγ_h (P48736 whole entry): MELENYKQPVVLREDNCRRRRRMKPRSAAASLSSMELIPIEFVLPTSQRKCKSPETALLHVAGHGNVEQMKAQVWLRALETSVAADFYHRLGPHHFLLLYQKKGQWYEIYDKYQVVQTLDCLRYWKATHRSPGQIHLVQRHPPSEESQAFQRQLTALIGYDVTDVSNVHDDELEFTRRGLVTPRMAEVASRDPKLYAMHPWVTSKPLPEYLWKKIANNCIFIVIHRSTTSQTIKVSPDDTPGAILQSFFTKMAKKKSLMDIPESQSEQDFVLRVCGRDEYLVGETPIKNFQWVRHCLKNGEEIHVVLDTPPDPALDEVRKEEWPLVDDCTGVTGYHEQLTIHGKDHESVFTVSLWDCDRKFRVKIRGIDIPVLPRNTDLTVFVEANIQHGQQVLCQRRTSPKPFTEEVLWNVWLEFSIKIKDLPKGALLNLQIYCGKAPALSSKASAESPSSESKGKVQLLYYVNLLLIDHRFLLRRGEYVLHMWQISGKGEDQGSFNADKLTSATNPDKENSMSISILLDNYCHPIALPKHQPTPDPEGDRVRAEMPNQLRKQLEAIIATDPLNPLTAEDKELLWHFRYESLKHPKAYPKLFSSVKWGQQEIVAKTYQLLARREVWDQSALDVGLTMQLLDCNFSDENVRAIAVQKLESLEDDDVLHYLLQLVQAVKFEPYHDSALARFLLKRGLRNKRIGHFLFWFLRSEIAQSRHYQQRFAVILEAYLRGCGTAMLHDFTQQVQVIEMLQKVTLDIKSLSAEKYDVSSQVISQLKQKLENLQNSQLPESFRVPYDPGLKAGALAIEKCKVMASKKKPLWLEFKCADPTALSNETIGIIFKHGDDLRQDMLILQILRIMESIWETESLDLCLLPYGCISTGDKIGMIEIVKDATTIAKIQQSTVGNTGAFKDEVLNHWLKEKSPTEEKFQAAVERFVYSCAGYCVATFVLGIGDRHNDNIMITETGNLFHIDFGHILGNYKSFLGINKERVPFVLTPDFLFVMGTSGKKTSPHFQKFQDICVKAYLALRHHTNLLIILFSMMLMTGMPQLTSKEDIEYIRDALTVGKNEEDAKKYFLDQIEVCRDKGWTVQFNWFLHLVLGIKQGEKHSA
Sequence of PIK3Cδ_h (O00329 whole entry): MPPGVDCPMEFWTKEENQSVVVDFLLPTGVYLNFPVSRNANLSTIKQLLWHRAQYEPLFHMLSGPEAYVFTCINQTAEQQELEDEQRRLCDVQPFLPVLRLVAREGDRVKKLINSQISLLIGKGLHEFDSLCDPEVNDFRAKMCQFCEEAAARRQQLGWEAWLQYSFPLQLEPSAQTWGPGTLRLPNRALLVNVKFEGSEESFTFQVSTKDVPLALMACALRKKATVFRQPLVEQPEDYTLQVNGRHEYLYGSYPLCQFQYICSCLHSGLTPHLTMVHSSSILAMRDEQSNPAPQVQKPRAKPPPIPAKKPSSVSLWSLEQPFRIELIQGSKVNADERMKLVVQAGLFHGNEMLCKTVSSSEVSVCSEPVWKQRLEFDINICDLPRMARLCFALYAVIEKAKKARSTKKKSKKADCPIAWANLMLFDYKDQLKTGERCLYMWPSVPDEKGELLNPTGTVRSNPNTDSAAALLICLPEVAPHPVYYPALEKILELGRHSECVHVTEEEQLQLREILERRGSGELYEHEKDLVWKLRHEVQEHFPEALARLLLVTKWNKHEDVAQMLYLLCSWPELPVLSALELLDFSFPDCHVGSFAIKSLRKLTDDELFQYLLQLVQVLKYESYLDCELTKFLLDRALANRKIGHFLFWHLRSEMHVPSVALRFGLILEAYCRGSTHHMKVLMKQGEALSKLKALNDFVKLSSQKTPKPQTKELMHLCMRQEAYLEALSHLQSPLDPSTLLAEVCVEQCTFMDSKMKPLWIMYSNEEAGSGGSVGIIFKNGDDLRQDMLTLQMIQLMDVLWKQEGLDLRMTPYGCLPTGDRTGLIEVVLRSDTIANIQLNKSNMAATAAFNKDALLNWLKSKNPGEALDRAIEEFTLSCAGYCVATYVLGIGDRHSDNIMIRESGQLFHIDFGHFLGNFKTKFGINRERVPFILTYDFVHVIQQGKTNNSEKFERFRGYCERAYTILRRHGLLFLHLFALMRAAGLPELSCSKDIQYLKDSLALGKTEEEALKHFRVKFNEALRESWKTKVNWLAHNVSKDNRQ

SMILES | Kd (PIK3Cα_h) [nM] | IC50 [1] [nM] | IC50 [2] [nM] | Kd (PIK3Cβ_h) [nM] | Kd (PIK3Cγ_h) [nM] | Kd (MTOR_h) [nM] | Kd (PIK3Cδ_h) [nM] | IC50 ([1]; Homo sapiens, PC-3, 1 h) [nM] | IC50 ([2]; Homo sapiens, PC-3, 1 h) [nM]
Cc1c(Cc2c(CO)nc3c(N)cc(N4CCOCC4)nn23)cccc1C(F)(F)F [Compound 14b] | > 10000 | 38 | 60 | 1.5 | > 8130 | > 30200 | 253 | – | –
Cc1c(Cc2c(CO)nc3c(C(N)=O)cc(N4CCOCC4)nn23)cccc1C(F)(F)F [Compound 15] | 1100 | – | – | 7 | 2000 | > 30200 | 479 | ~43 | ~91
Cc1c(Cc2c(CCO)nc3c(N)cc(N4CCOCC4)nn23)cccc1C(F)(F)F [Compound 23] | 20900 | – | – | 3 | 23000 | 20600 | 276 | 49 | 64
Cc1c(Cc2c(CO)nc3c(N)cc(N4CCOCC4)nn23)cccc1C(F)(F)F [Compound 14a] | > 30200 | 38 | ~46 | 1.2 | > 10000 | 6760 | 225 | – | –
Cc1nc2c(C(N)=O)cc(N3CCOCC3)nn2c1Nc1cccc(C(F)(F)F)c1C [Compound 40] | 2040 | – | – | 4 | 3900 | 20100 | 372 | 60 | 105
Cc1c(Cc2c(COC(=O)C(C)N)nc3c(N)cc(N4CCOCC4)nn23)cccc1C(F)(F)F (stereo not drawn) [Compound 79] | 8710 | 45 | 27 | 0.8 | 17400 | 8910 | 120 | – | –
Cc1c(Cc2c(CO)nc3c(-c4cnc[nH]4)cc(N4CCOCC4)nn23)cccc1C(F)(F)F [Compound 19] | – | – | – | – | – | – | – | 26 | 28
Cc1nc2c(N)cc(N3CCOCC3)nn2c1Nc1cccc(C(F)(F)F)c1CN1CCC(O)C1 (stereo not drawn) [Compound 78] | 3240 | 26 | 51 | 1.3 | – | – | 35 | – | –
Cc1c(Cc2c(CF)nc3c(C(N)=O)cc(N4CCOCC4)nn23)cccc1C(F)(F)F [Compound 16] | > 10000 | – | – | 10 | > 3310 | > 30200 | > 3310 | 155 | 123
Cc1nc2c(N)cc(N3CCOCC3)nn2c1Cc1cccc(F)c1CO [Compound 94] | 16600 | – | – | 18 | 10500 | 5750 | 1410 | 417 | > 513
Cc1c(Cc2c(CN(C)CCS(C)(=O)=O)nc3c(N)cc(N4CCOCC4)nn23)cccc1C(F)(F)F [Compound 1] | 16600 | – | – | 2.4 | > 30200 | 23400 | 513 | 74 | ~34
Cc1nc2c(N)cc(N3CCOCC3)nn2c1Nc1cccc(C(F)(F)F)c1C1CCNCC1 [Compound 59] | 6460 | – | – | 0.1 | 3390 | > 30200 | 11 | ~60 | 85
Cc1c(Cc2c(C(C)O)nc3c(-c4c[nH]cn4)cc(N4CCOCC4)nn23)cccc1C(F)(F)F (stereo not drawn) [Compound 30] | 1180 | – | – | 2.6 | 4570 | 2190 | 129 | ~42 | 59
Cc1nc2c(N)cc(N3CCOCC3)nn2c1Nc1cccc(C(F)(F)F)c1CN1CCCC1 [Compound 62] | 22400 | – | – | 10 | 30200 | > 30200 | 35 | ~74 | 110
Cc1nc2c(N)cc(N3CCOCC3)nn2c1Nc1cccc(C(F)(F)F)c1C1CCN(CCO)CC1 [Compound 73] | 3240 | – | – | 0.3 | 24000 | > 30200 | 28 | ~72 | 89
Cc1nc2c(C(=O)O)cc(C3=CCOCC3)nn2c1Cc1cccc(C(F)(F)F)c1C [Compound 29] | 3390 | – | – | 7 | 12300 | > 30200 | 200 | ~513 | > 513
Cc1c(Cc2c(CO)nc3c(N)cc(N4CCOCC4)nn23)cccc1C(F)(F)F [Compound 14d] | – | 29 | 67 | – | – | – | – | – | –
Cc1nc2c(N)cc(N3CCOCC3)nn2c1Nc1cccc(C(F)(F)F)c1CN1CCC(O)C1 (stereo not drawn) [Compound 74] | 4900 | – | – | 2.2 | – | – | 31 | 26 | 30
Nc1cc(N2CCOCC2)nn2c(Cc3cccc(C(F)(F)F)c3C3CCN(CCO)CC3)c(CO)nc12 [Compound 105] | 26300 | – | – | 1.2 | > 30200 | > 30200 | 537 | 85 | –
Cc1nc2c(N)cc(N3CCOCC3)nn2c1Nc1ccccc1N1CCOCC1 [Compound 88] | 11200 | – | – | 12 | 8320 | 8710 | 69 | 120 | –
Cc1c(Cc2c(CO)nc3c(N)cc(N4CCOCC4)nn23)cccc1C(F)(F)F [Compound 14e] | – | 41 | 52 | – | – | – | – | – | –
Cc1nc2c(N)cc(N3CCOCC3)nn2c1Nc1cccc(C(F)(F)F)c1CN1CCC(O)C1 (stereo not drawn) [Compound 77] | 3160 | 25 | 58 | 1.4 | – | – | 47 | – | –
CCc1c(F)cccc1Cc1c(CNCCO)nc2c(N)cc(N3CCOCC3)nn12 [Compound 101] | – | – | – | – | – | – | – | > 513 | > 513
Cc1nc2c(N)cc(N3CCOCC3)nn2c1Nc1cccc(C(F)(F)F)c1CO [Compound 51] | – | – | – | 2.1 | – | 11500 | 166 | ~81 | 145
